From PubChem BioAssay AID1963853 (Molecular Pharmacology Branch, DTP, NCI, 2024)

System: 266295-075-R-J1-PDC spheroid viability
Test: Anticancer human tumor 266295-075-R-J1-PDC patient-derived head and neck squamous carcinoma cell line growth inhibition [POLQ]
Conditions: spheroids with HUVEC and MSC; for IC50: curve of first compound; for viability, T/C: stronger effect = lower value
Procedure, shortened: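 Patient-derived tumour cells were co-cultured with HUVEC and mesenchymal stem cells as multicellular spheroids at 37 °C. They were treated with POLQ inhibitors (novobiocin, ART-558, RP6685) alone or combined with other agents. Top concentrations were at or near clinical Cmax (otherwise 10 microM; SN-38 at 1 microM), decreasing in half-log steps.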

[1] = second compound 0.0316 µM, first compound 0.0316 µM
[2] = second compound 0.0316 µM, first compound 0.1 µM
[3] = second compound 0.0316 µM, first compound 0.316 µM
[4] = second compound 0.0316 µM, first compound 1 µM
[5] = second compound 0.0316 µM, first compound 3.16 µM
[6] = second compound 0.0316 µM, first compound 10 µM
[7] = second compound 0.1 µM, first compound 0.0316 µM
[8] = second compound 0.1 µM, first compound 0.1 µM
[9] = second compound 0.1 µM, first compound 0.316 µM
[10] = second compound 0.1 µM, first compound 1 µM
[11] = second compound 0.1 µM, first compound 3.16 µM
[12] = second compound 0.1 µM, first compound 10 µM
[13] = second compound 0.316 µM, first compound 0.0316 µM
[14] = second compound 0.316 µM, first compound 0.1 µM
[15] = second compound 0.316 µM, first compound 0.316 µM
[16] = second compound 0.316 µM, first compound 1 µM
[17] = second compound 0.316 µM, first compound 3.16 µM
[18] = second compound 0.316 µM, first compound 10 µM
[19] = second compound 1 µM, first compound 0.0316 µM
[20] = second compound 1 µM, first compound 0.1 µM
[21] = second compound 1 µM, first compound 0.316 µM
[22] = second compound 1 µM, first compound 1 µM
[23] = second compound 1 µM, first compound 3.16 µM
[24] = second compound 1 µM, first compound 10 µM
[25] = second compound 3.16 µM, first compound 0.0316 µM
[26] = second compound 3.16 µM, first compound 0.1 µM
[27] = second compound 3.16 µM, first compound 0.316 µM
[28] = second compound 3.16 µM, first compound 1 µM
[29] = second compound 3.16 µM, first compound 3.16 µM
[30] = second compound 3.16 µM, first compound 10 µM
[31] = second compound 10 µM, first compound 0.0316 µM
[32] = second compound 10 µM, first compound 0.1 µM
[33] = second compound 10 µM, first compound 0.316 µM
[34] = second compound 10 µM, first compound 1 µM
[35] = second compound 10 µM, first compound 3.16 µM
[36] = second compound 10 µM, first compound 10 µM
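Note: spheroids exposed to compounds for seven days before readout.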

`CC1COCCN1c1cc(-c2ccnn2C)c2ccnc(-c3ccn[nH]3)c2n1` (centres undefined) + COC1C(OC(N)=O)C(O)C(Oc2ccc3c(O)c(NC(=O)c4ccc(O)c(CC=C(C)C)c4)c(=O)oc3c2C)OC1(C)C was tested, and the IC50 (second compound 0.0316 µM) was 4.35 µM, the IC50 (second compound 0.1 µM) was 2.01 µM and the IC50 (second compound 0.316 µM) was 1.91 µM. For the same molecule, the IC50 (second compound 1 µM) was 3.89 µM, the IC50 (second compound 3.16 µM) was 4.51 µM and the IC50 (second compound 10 µM) was 1.97 µM. For the same molecule, the viability, T/C [1] was 91.2%, the viability, T/C [2] was 84.7% and the viability, T/C [3] was 71.2%. For the same molecule, the viability, T/C [4] was 63.3%, the viability, T/C [5] was 54.3% and the viability, T/C [6] was 42.1%. It also gave a viability, T/C [7] of 91.7%, a viability, T/C [8] of 92.2% and a viability, T/C [9] of 65.8%. For the same molecule, the viability, T/C [10] was 58%, the viability, T/C [11] was 48.4% and the viability, T/C [12] was 41.6%. The viability, T/C [13] was 89.9%, the viability, T/C [14] was 90.6% and the viability, T/C [15] was 63.7%. The viability, T/C [16] was 61.3%, the viability, T/C [17] was 43.6% and the viability, T/C [18] was 38.7%. The viability, T/C [19] was 110%, the viability, T/C [20] was 91.2% and the viability, T/C [21] was 79.1%. For the same molecule, the viability, T/C [22] was 62.5%, the viability, T/C [23] was 53.3% and the viability, T/C [24] was 41%. It also gave a viability, T/C [25] of 98.2%, a viability, T/C [26] of 82.8% and a viability, T/C [27] of 77.2%. It also gave a viability, T/C [28] of 63.9%, a viability, T/C [29] of 53.9% and a viability, T/C [30] of 41.9%. The viability, T/C [31] was 87.6%, the viability, T/C [32] was 94.7% and the viability, T/C [33] was 75.7%. It also gave a viability, T/C [34] of 57.1%, a viability, T/C [35] of 47.8% and a viability, T/C [36] of 38.1%.
In the case of `O=c1[nH]cc(F)c(=O)[nH]1` + Cc1cccc(N(C)C(=O)C2C(O)CCN2c2nc(C)cc(C(F)(F)F)c2C#N)c1, the IC50 (second compound 0.0316 µM) is reported as greater than 10 µM, the IC50 (second compound 0.1 µM) is reported as greater than 10 µM and the IC50 (second compound 0.316 µM) is reported as greater than 10 µM. It also gave an IC50 (second compound 1 µM) greater than 10 µM, an IC50 (second compound 3.16 µM) greater than 10 µM and an IC50 (second compound 10 µM) greater than 10 µM. For the same molecule, the viability, T/C [1] was 87.9%, the viability, T/C [2] was 81% and the viability, T/C [3] was 101%. It also gave a viability, T/C [4] of 92.1%, a viability, T/C [5] of 77.8% and a viability, T/C [6] of 85.1%. For the same molecule, the viability, T/C [7] was 120%, the viability, T/C [8] was 87.6% and the viability, T/C [9] was 84.3%. The viability, T/C [10] was 99.7%, the viability, T/C [11] was 104% and the viability, T/C [12] was 83.1%. The viability, T/C [13] was 77.2%, the viability, T/C [14] was 99.8% and the viability, T/C [15] was 90.6%. It also gave a viability, T/C [16] of 92.6%, a viability, T/C [17] of 92.4% and a viability, T/C [18] of 63.5%. The viability, T/C [19] was 98.5%, the viability, T/C [20] was 97.9% and the viability, T/C [21] was 95.2%. It also gave a viability, T/C [22] of 97.7%, a viability, T/C [23] of 99.5% and a viability, T/C [24] of 96.9%. It also gave a viability, T/C [25] of 105%, a viability, T/C [26] of 98.9% and a viability, T/C [27] of 102%. The viability, T/C [28] was 136%, the viability, T/C [29] was 95.4% and the viability, T/C [30] was 73.8%. For the same molecule, the viability, T/C [31] was 89.8%, the viability, T/C [32] was 96.8% and the viability, T/C [33] was 110%. It also gave a viability, T/C [34] of 94.3%, a viability, T/C [35] of 92.9% and a viability, T/C [36] of 71.6%.
